Laboratory results reported in ChEMBL document CHEMBL4002623, “Synthesis and in vitro activity of dicationic indolyl diphenyl ethers as novel potent antibiotic agents against drug-resistant bacteria” (Bioorg Med Chem Lett, 2017).
Values after ≈ are worked out from the molar mass of the structure shown.

Legend:
[1] = tested on: Staphylococcus epidermidis; experiment: Antibacterial activity against methicillin-sensitive Staphylococcus epidermidis ATCC 12228 by agar dilution method; assay type: functional
Enterococcus faecalis [2] = experiment: Antibacterial activity against vancomycin-resistant Enterococcus faecalis ATCC 51299 by agar dilution method; assay type: functional
Staphylococcus aureus [3] = experiment: Antibacterial activity against methicillin-sensitive Staphylococcus aureus 09-6 by agar dilution method; assay type: functional
Citrobacter freundii = experiment: Antibacterial activity against Citrobacter freundii ATCC 43864 by agar dilution method; assay type: functional
Enterococcus faecium [4] = experiment: Antibacterial activity against vancomycin-sensitive Enterococcus faecium 09-10 by agar dilution method; assay type: functional
Proteus mirabilis = experiment: Antibacterial activity against Proteus mirabilis 09-1 by agar dilution method; assay type: functional
Klebsiella pneumoniae [5] = experiment: Antibacterial activity against extended-spectrum beta-lactamase-negative Klebsiella pneumoniae 7 by agar dilution method; assay type: functional
[6] = tested on: Staphylococcus epidermidis; experiment: Antibacterial activity against methicillin-sensitive Staphylococcus epidermidis 09-9 by agar dilution method; assay type: functional
Klebsiella pneumoniae [7] = experiment: Antibacterial activity against Klebsiella pneumoniae ATCC BAA-2146 expressing NDM-1 by agar dilution method; assay type: functional
Staphylococcus aureus [8] = experiment: Antibacterial activity against methicillin-sensitive Staphylococcus aureus ATCC 29213 by agar dilution method; assay type: functional
Klebsiella pneumoniae [9] = experiment: Antibacterial activity against extended-spectrum beta-lactamase-positive Klebsiella pneumoniae ATCC 700603 by agar dilution method; assay type: functional
Klebsiella aerogenes = experiment: Antibacterial activity against Enterobacter aerogenes 45102 by agar dilution method; assay type: functional
Enterococcus faecium [10] = experiment: Antibacterial activity against vancomycin-resistant Enterococcus faecium 05-8 by agar dilution method; assay type: functional
Serratia marcescens = experiment: Antibacterial activity against Serratia marcescens 41002 by agar dilution method; assay type: functional
Enterococcus faecalis [11] = experiment: Antibacterial activity against vancomycin-resistant Enterococcus faecalis 09-9 by agar dilution method; assay type: functional
Escherichia coli [12] = experiment: Antibacterial activity against extended-spectrum beta-lactamase-positive Escherichia coli 09-1 by agar dilution method; assay type: functional
Proteus vulgaris = experiment: Antibacterial activity against Proteus vulgaris ATCC 29905 by agar dilution method; assay type: functional
Escherichia coli [13] = experiment: Antibacterial activity against extended-spectrum beta-lactamase-negative Escherichia coli 09-20 by agar dilution method; assay type: functional
[14] = tested on: Staphylococcus epidermidis; experiment: Antibacterial activity against methicillin-resistant Staphylococcus epidermidis 09-3 by agar dilution method; assay type: functional
[15] = Cytotoxicity against HEK293T cells after 48 hrs by MTS assay; assay type: cell-based, HEK-293T; details: human
Klebsiella pneumoniae [16] = experiment: Antibacterial activity against extended-spectrum beta-lactamase-positive Klebsiella pneumoniae 09-25 by agar dilution method; assay type: functional
Providencia rettgeri = experiment: Antibacterial activity against Providencia rettgeri ATCC 31052 by agar dilution method; assay type: functional
Enterococcus faecalis [17] = experiment: Antibacterial activity against vancomycin-sensitive Enterococcus faecalis ATCC 29212 by agar dilution method; assay type: functional
Pseudomonas aeruginosa [18] = experiment: Antibacterial activity against Pseudomonas aeruginosa 09-14 by agar dilution method; assay type: functional
Staphylococcus aureus [19] = experiment: Antibacterial activity against methicillin-resistant Staphylococcus aureus 09-13 by agar dilution method; assay type: functional
Pseudomonas aeruginosa [20] = experiment: Antibacterial activity against Pseudomonas aeruginosa ATCC 27853 by agar dilution method; assay type: functional
Pseudomonas aeruginosa [21] = experiment: Antibacterial activity against Pseudomonas aeruginosa PAO1 by agar dilution method; assay type: functional
Escherichia coli [22] = experiment: Antibacterial activity against extended-spectrum beta-lactamase-negative Escherichia coli 1515 by agar dilution method; assay type: functional
Enterococcus faecalis [23] = experiment: Antibacterial activity against vancomycin-sensitive Enterococcus faecalis 09-8 by agar dilution method; assay type: functional
Staphylococcus aureus [24] = experiment: Antibacterial activity against methicillin-sensitive Staphylococcus aureus 15 by agar dilution method; assay type: functional
Salmonella typhi = experiment: Antibacterial activity against Salmonella typhi H901 by agar dilution method; assay type: functional, Salmonella enterica subsp. enterica serovar Typhi; details: Salmonella enterica
Enterococcus faecium [25] = experiment: Antibacterial activity against vancomycin-resistant Enterococcus faecium ATCC 700221 by agar dilution method; assay type: functional
Escherichia coli [26] = experiment: Antibacterial activity against extended-spectrum beta-lactamase-negative Escherichia coli ATCC 25922 by agar dilution method; assay type: functional
[27] = tested on: Acinetobacter calcoaceticus; experiment: Antibacterial activity against Acinetobacter calcoaceticus ATCC 19606 by agar dilution method; assay type: functional
Klebsiella pneumoniae [28] = experiment: Antibacterial activity against extended-spectrum beta-lactamase-negative Klebsiella pneumoniae 09-8 by agar dilution method; assay type: functional
Enterobacter cloacae = experiment: Antibacterial activity against Enterobacter cloacae 45301 by agar dilution method; assay type: functional
Morganella morganii = experiment: Antibacterial activity against Morganella morganii ATCC 25830 by agar dilution method; assay type: functional
Staphylococcus aureus [29] = experiment: Antibacterial activity against methicillin-resistant Staphylococcus aureus ATCC 33591 by agar dilution method; assay type: functional

## CCCNC(=N)c1ccc2cc(-c3ccc(Oc4ccc(-c5cc6ccc(C(=N)NCCC)cc6[nH]5)cc4)cc3)[nH]c2c1
[1]
  MIC: 8 µg/mL (≈ 14.1 µM)
Enterococcus faecalis [2]
  MIC: 16 µg/mL (≈ 28.1 µM)
Staphylococcus aureus [3]
  MIC: 16 µg/mL (≈ 28.1 µM)
Citrobacter freundii
  MIC: > 128 µg/mL
Enterococcus faecium [4]
  MIC: 16 µg/mL (≈ 28.1 µM)
Proteus mirabilis
  MIC: > 128 µg/mL
Klebsiella pneumoniae [5]
  MIC: > 128 µg/mL
[6]
  MIC: 8 µg/mL (≈ 14.1 µM)
Klebsiella pneumoniae [7]
  MIC: > 128 µg/mL
Staphylococcus aureus [8]
  MIC: 16 µg/mL (≈ 28.1 µM)
Klebsiella pneumoniae [9]
  MIC: > 128 µg/mL
Klebsiella aerogenes
  MIC: > 128 µg/mL
Enterococcus faecium [10]
  MIC: 16 µg/mL (≈ 28.1 µM)
Serratia marcescens
  MIC: > 128 µg/mL
Enterococcus faecalis [11]
  MIC: 16 µg/mL (≈ 28.1 µM)
Escherichia coli [12]
  MIC: > 128 µg/mL
Proteus vulgaris
  MIC: > 128 µg/mL
Escherichia coli [13]
  MIC: 128 µg/mL (≈ 225 µM)
[14]
  MIC: 2 µg/mL (≈ 3.52 µM)
[15]
  CC50 at 48 h: 26.2 µg/mL (≈ 46.1 µM)
Klebsiella pneumoniae [16]
  MIC: > 128 µg/mL
Providencia rettgeri
  MIC: > 128 µg/mL
Enterococcus faecalis [17]
  MIC: 16 µg/mL (≈ 28.1 µM)
Pseudomonas aeruginosa [18]
  MIC: > 128 µg/mL
Staphylococcus aureus [19]
  MIC: 16 µg/mL (≈ 28.1 µM)
Pseudomonas aeruginosa [20]
  MIC: > 128 µg/mL
Pseudomonas aeruginosa [21]
  MIC: > 128 µg/mL
Escherichia coli [22]
  MIC: > 128 µg/mL
Enterococcus faecalis [23]
  MIC: 16 µg/mL (≈ 28.1 µM)
Staphylococcus aureus [24]
  MIC: 8 µg/mL (≈ 14.1 µM)
Salmonella typhi
  MIC: 128 µg/mL (≈ 225 µM)
Enterococcus faecium [25]
  MIC: 2 to 16 µg/mL (≈ 3.52 to 28.1 µM)
Escherichia coli [26]
  MIC: > 128 µg/mL
[27]
  MIC: > 128 µg/mL
Klebsiella pneumoniae [28]
  MIC: 128 µg/mL (≈ 225 µM)
Enterobacter cloacae
  MIC: > 128 µg/mL
Morganella morganii
  MIC: 128 µg/mL (≈ 225 µM)
Staphylococcus aureus [29]
  MIC: 16 µg/mL (≈ 28.1 µM)

## c1cc(-c2cc3ccc(C4=NCCCN4)cc3[nH]2)ccc1Oc1ccc(-c2cc3ccc(C4=NCCCN4)cc3[nH]2)cc1
[1]
  MIC: 0.25 µg/mL (≈ 0.443 µM)
Citrobacter freundii
  MIC: 128 µg/mL (≈ 227 µM)
Enterococcus faecium [4]
  MIC: 16 µg/mL (≈ 28.3 µM)
Proteus mirabilis
  MIC: > 128 µg/mL
Klebsiella pneumoniae [5]
  MIC: ≥ 128 µg/mL
[6]
  MIC: 1 µg/mL (≈ 1.77 µM)
Klebsiella pneumoniae [7]
  MIC: 128 µg/mL (≈ 227 µM)
Klebsiella pneumoniae [9]
  MIC: > 128 µg/mL
Klebsiella aerogenes
  MIC: 128 µg/mL (≈ 227 µM)
Serratia marcescens
  MIC: 128 µg/mL (≈ 227 µM)
Escherichia coli [12]
  MIC: 64 µg/mL (≈ 113 µM)
Proteus vulgaris
  MIC: 128 µg/mL (≈ 227 µM)
Escherichia coli [13]
  MIC: 128 µg/mL (≈ 227 µM)
[15]
  CC50 at 48 h: 43.1 µg/mL (≈ 76.3 µM)
Klebsiella pneumoniae [16]
  MIC: ≥ 128 µg/mL
Providencia rettgeri
  MIC: 128 µg/mL (≈ 227 µM)
Enterococcus faecalis [17]
  MIC: 4 µg/mL (≈ 7.08 µM)
Pseudomonas aeruginosa [18]
  MIC: > 128 µg/mL
Pseudomonas aeruginosa [20]
  MIC: > 128 µg/mL
Pseudomonas aeruginosa [21]
  MIC: > 128 µg/mL
Escherichia coli [22]
  MIC: 64 µg/mL (≈ 113 µM)
Enterococcus faecalis [23]
  MIC: 2 µg/mL (≈ 3.54 µM)
Escherichia coli [26]
  MIC: 64 µg/mL (≈ 113 µM)
[27]
  MIC: > 128 µg/mL
Klebsiella pneumoniae [28]
  MIC: 128 µg/mL (≈ 227 µM)
Enterobacter cloacae
  MIC: 64 µg/mL (≈ 113 µM)
Morganella morganii
  MIC: 32 µg/mL (≈ 56.7 µM)

## CCC(C)NC(=N)c1ccc2cc(-c3ccc(Oc4ccc(-c5cc6ccc(C(=N)NC(C)CC)cc6[nH]5)cc4)cc3)[nH]c2c1 (configuration not stated)
[1]
  MIC: 0.5 µg/mL (≈ 0.838 µM)
Enterococcus faecalis [2]
  MIC: 2 µg/mL (≈ 3.35 µM)
Staphylococcus aureus [3]
  MIC: 2 µg/mL (≈ 3.35 µM)
Citrobacter freundii
  MIC: 32 µg/mL (≈ 53.6 µM)
Enterococcus faecium [4]
  MIC: 8 µg/mL (≈ 13.4 µM)
Proteus mirabilis
  MIC: 64 µg/mL (≈ 107 µM)
Klebsiella pneumoniae [5]
  MIC: 64 µg/mL (≈ 107 µM)
[6]
  MIC: 2 µg/mL (≈ 3.35 µM)
Klebsiella pneumoniae [7]
  MIC: 32 µg/mL (≈ 53.6 µM)
Staphylococcus aureus [8]
  MIC: 2 µg/mL (≈ 3.35 µM)
Klebsiella pneumoniae [9]
  MIC: 64 µg/mL (≈ 107 µM)
Klebsiella aerogenes
  MIC: 32 µg/mL (≈ 53.6 µM)
Enterococcus faecium [10]
  MIC: 2 µg/mL (≈ 3.35 µM)
Serratia marcescens
  MIC: 64 µg/mL (≈ 107 µM)
Enterococcus faecalis [11]
  MIC: 8 µg/mL (≈ 13.4 µM)
Escherichia coli [12]
  MIC: 32 µg/mL (≈ 53.6 µM)
Proteus vulgaris
  MIC: 32 µg/mL (≈ 53.6 µM)
Escherichia coli [13]
  MIC: 32 µg/mL (≈ 53.6 µM)
[14]
  MIC: 1 µg/mL (≈ 1.68 µM)
[15]
  CC50 at 48 h: 40.4 µg/mL (≈ 67.7 µM)
Klebsiella pneumoniae [16]
  MIC: 32 µg/mL (≈ 53.6 µM)
Providencia rettgeri
  MIC: 64 µg/mL (≈ 107 µM)
Enterococcus faecalis [17]
  MIC: 2 µg/mL (≈ 3.35 µM)
Pseudomonas aeruginosa [18]
  MIC: 64 µg/mL (≈ 107 µM)
Staphylococcus aureus [19]
  MIC: 1 µg/mL (≈ 1.68 µM)
Pseudomonas aeruginosa [20]
  MIC: 32 µg/mL (≈ 53.6 µM)
Pseudomonas aeruginosa [21]
  MIC: 64 µg/mL (≈ 107 µM)
Escherichia coli [22]
  MIC: 16 µg/mL (≈ 26.8 µM)
Enterococcus faecalis [23]
  MIC: 2 µg/mL (≈ 3.35 µM)
Staphylococcus aureus [24]
  MIC: 2 µg/mL (≈ 3.35 µM)
Salmonella typhi
  MIC: 16 µg/mL (≈ 26.8 µM)
Enterococcus faecium [25]
  MIC: 1 µg/mL (≈ 1.68 µM)
Escherichia coli [26]
  MIC: 16 µg/mL (≈ 26.8 µM)
[27]
  MIC: 64 µg/mL (≈ 107 µM)
Klebsiella pneumoniae [28]
  MIC: 16 µg/mL (≈ 26.8 µM)
Enterobacter cloacae
  MIC: 32 µg/mL (≈ 53.6 µM)
Morganella morganii
  MIC: 16 µg/mL (≈ 26.8 µM)
Staphylococcus aureus [29]
  MIC: 2 µg/mL (≈ 3.35 µM)

## CN[C@H](CC(C)C)C(=O)N[C@H]1C(=O)N[C@@H](CC(N)=O)C(=O)N[C@H]2C(=O)N[C@H]3C(=O)N[C@H](C(=O)N[C@H](C(=O)O)c4cc(O)cc(O)c4-c4cc3ccc4O)[C@H](O)c3ccc(c(Cl)c3)Oc3cc2cc(c3O[C@@H]2O[C@H](CO)[C@@H](O)[C@H](O)[C@H]2O[C@H]2C[C@](C)(N)[C@H](O)[C@H](C)O2)Oc2ccc(cc2Cl)[C@H]1O [VANCOMYCIN]
[1]
  MIC: 0.5 µg/mL (≈ 0.345 µM)
[6]
  MIC: 0.5 µg/mL (≈ 0.345 µM)
Enterococcus faecalis [17]
  MIC: 1 µg/mL (≈ 0.69 µM)
Enterococcus faecalis [23]
  MIC: 1 µg/mL (≈ 0.69 µM)
